Several values for one entry are separate records, joined by “and”; a condition that tells them apart may be missing. Equal values may be shown once. Read-outs that look alike come from different tables or passages of the source.
What was measured:
[1] = biological target: T1, Human recombinant C-terminal His-tag-HDAC8 (Homo sapiens, UniProt Q9BY41); test: HDAC-Glo I/II bioluminogenic enzyme assay, HDAC8; format: biochemical; conditions: mean ± SD of three independent experiments; read-out: HDAC Inhibition, IC50 ± SD, HDAC8
T1 construct: His (C); purchased BPS Bioscience 50008
T1 sequence (Q9BY41 1-377): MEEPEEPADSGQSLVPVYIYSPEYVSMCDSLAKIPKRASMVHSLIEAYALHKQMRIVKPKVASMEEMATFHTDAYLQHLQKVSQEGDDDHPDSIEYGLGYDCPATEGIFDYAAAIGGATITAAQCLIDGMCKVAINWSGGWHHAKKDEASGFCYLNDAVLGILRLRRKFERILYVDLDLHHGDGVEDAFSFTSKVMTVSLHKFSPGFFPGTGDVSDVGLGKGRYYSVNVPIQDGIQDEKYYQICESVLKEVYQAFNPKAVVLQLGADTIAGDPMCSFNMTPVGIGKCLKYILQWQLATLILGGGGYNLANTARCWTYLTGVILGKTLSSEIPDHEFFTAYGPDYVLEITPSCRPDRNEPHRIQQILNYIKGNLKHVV

MDA-MB-231 cells [2] = test: Apoptosis assay, Annexin V-FITC/7-AAD flow cytometry; format: cell-based, human; conditions: for early apoptotic cells: 72 h
Procedure: Examined breast cancer cells (MDA-MB-231) were stained with annexin V–fluorescein isothiocyanate/and 7AAD (BD Pharmingen, San Diego, CA, USA), and the samples were prepared following the specifications given by manufacturer. The population of apoptotic cells was analyzed by flow cytometry using a FACS Calibur cytometer and Cell Quest computer software (Becton Dickinson, Heidelberg, Germany).

[3] = biological target: T2, Human recombinant N-ter-GST-HDAC-6 (Homo sapiens, UniProt Q9UBN7); test: HDAC-Glo I/II bioluminogenic enzyme assay, HDAC6; format: biochemical; design: GST (N); purchased BPS Bioscience 50006; conditions: for % HDAC6 Inhibition at 5 μM / inhibition at 5 µM: mean ± standard error of triplicate; for IC50: mean ± SD of three independent experiments, read-out: HDAC Inhibition, IC50 ± SD, HDAC6; for Selectivity Ratio HDAC1/6 / Selectivity Ratio HDAC3/6 / Selectivity Ratio HDAC8/6: ratio of IC50 values
T2 sequence (Q9UBN7 1-1215): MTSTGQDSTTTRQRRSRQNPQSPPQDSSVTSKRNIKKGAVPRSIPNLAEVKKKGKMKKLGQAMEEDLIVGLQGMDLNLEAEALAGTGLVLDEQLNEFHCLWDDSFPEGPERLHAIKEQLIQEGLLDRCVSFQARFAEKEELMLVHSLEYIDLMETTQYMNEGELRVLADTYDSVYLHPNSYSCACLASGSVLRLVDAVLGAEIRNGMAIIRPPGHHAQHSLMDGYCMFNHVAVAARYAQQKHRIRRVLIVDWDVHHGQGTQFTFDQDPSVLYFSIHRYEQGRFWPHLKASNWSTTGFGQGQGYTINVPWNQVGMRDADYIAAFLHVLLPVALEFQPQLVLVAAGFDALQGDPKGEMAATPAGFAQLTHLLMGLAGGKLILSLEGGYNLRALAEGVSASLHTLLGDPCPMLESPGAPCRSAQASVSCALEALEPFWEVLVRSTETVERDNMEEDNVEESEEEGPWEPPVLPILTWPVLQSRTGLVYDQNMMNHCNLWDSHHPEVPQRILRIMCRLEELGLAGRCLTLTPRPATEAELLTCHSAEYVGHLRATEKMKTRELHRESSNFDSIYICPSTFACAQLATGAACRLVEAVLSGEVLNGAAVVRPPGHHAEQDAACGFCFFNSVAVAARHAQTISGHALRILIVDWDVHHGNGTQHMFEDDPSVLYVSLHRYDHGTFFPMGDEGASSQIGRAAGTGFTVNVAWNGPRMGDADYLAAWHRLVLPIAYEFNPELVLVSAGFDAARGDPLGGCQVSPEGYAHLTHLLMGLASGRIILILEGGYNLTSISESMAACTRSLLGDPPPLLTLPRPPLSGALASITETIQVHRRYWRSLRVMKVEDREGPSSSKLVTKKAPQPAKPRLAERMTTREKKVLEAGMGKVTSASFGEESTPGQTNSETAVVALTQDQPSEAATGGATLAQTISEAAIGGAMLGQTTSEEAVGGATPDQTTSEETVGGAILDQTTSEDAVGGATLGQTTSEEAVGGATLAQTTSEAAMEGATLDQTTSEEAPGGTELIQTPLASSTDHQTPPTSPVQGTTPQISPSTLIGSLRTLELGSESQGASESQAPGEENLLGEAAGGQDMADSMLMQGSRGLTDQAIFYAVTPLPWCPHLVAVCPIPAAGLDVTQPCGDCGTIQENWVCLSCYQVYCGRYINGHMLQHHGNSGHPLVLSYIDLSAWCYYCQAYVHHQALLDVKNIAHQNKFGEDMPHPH

MCF-7 cells = test: Cell viability (MTT) assay, MCF-7; format: cell-based; conditions: Homo sapiens, MCF7, 48 h, read-out: Cytotoxic activity IC50 ± SD, MCF-7
Procedure: (§1) Human breast adenocarcinoma cells (MCF-7, ATCC® HTB-22™) and triple-negative breast cancer cells (MDA-MB-231, ATCC® HTB-26™) were obtained from the American Type Culture Collection (Rockville, MD, USA). Cells were maintained as a monolayer culture in DMEM:Ham’s 12 (1:1) medium (Sigma-Aldrich, St. Louis, MO, USA) supplemented with penicillin (192 U/mL), streptomycin (200 µg/mL), and 10% of heat-inactivated fetal calf serum (FCS). Cells were grown at 37 °C in 5% CO2 and humidified air atmosphere, by twice weekly subculture.
(§2) Cytotoxic activity of synthesized 1-benzhydryl-piperazine-based HDAC inhibitors was assessed on MDA-MB-231 and MCF-7 cells using an MTT assay. MDA-MB-231 (5 × 10^3 cells/well) and MCF-7 (5 × 10^3 cells/well) were treated with synthesized compounds in six different concentrations (100, 50, 25, 12.5, 6.25, and 3.13 μM), and each concentration was added in five replicates. MTT solution (3-(4,5-dimethylthiazol-2-yl)-2,5-diphenyltetrazolium bromide) (Sigma-Aldrich, St. Louis, USA) was added to each well (20 µL) after 48 h. After 4 h of incubation, 100 μL of 10% SDS was added in each well and incubated at 37 °C. On the next day, the absorbance at 570 nm was recorded. The ratio of absorbance (570 nm) values between treated and control cells multiplied by 100 was used to calculate cell survival (%). The concentration of synthesized HDAC inhibitors that reduced cell viability by 50% was defined as the IC50 value, and was compared to the vehicle control.

MDA-MB-231 cells [4] = test: Cell viability (MTT) assay, MDA-MB-231; format: cell-based, human; conditions: read-out: Cytotoxic activity IC50 ± SD, MDA-MB-231
Procedure: as §1, §2

[5] = biological target: T3, Human recombinant C-ter-His-FLAG-HDAC1 (Homo sapiens, UniProt Q13547); test: HDAC-Glo I/II bioluminogenic enzyme assay, HDAC1; format: biochemical; conditions: mean ± SD of three independent experiments; read-out: HDAC Inhibition, IC50 ± SD, HDAC1
T3 construct: His (C); FLAG (C); purchased BPS Bioscience 50051
T3 sequence (Q13547 whole entry): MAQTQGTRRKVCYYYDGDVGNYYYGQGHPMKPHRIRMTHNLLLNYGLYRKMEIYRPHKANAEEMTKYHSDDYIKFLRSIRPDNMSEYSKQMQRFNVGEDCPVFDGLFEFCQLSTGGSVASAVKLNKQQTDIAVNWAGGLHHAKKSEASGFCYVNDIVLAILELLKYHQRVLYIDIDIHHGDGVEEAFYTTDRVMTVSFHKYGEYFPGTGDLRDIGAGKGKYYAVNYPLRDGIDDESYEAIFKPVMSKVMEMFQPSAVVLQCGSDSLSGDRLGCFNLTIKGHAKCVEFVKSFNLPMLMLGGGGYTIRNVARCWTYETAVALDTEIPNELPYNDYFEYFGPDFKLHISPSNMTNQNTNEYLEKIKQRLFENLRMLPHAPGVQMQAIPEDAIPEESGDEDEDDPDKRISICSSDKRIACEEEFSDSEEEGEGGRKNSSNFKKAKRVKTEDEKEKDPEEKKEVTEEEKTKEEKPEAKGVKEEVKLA

| SMILES | IC50 [1] | programmed cell death (MDA-MB-231 cells [2]; IC50 concentration, 24 h) | early apoptotic cells (MDA-MB-231 cells [2]; IC50 concentration) | % HDAC6 Inhibition at 5 μM [3] | inhibition at 5 µM [3] | IC50 [3] | Selectivity Ratio HDAC1/6 [3] | Selectivity Ratio HDAC3/6 [3] | Selectivity Ratio HDAC8/6 [3] | IC50 (MCF-7 cells) | IC50 (MDA-MB-231 cells [4]; Homo sapiens, MDA-MB-231, 48 h) | IC50 [5] | late apoptotic cell population (MDA-MB-231 cells [2]; 5 μM, control 1.13%) | early apoptotic cell population (MDA-MB-231 cells [2]; 5 μM, control 1.27%) | IC50 (MDA-MB-231 cells [4]; 48 h) |
| --- | --- | --- | --- | --- | --- | --- | --- | --- | --- | --- | --- | --- | --- | --- | --- |
| O=C(CCCCCCN1CCN(C(c2ccccc2)c2ccccc2)CC1)NO [Compound 7b, 7-(4-(diphenylmethyl)-piperazin-1-yl)-N-hydroxyheptanamide] | 345 ± 17 nM | slight increase | around 45% | 97.1 ± 0.8% | > 90% | 96 ± 8 nM | 6.4 | 2.8 | 3.6 | > 100000 nM | 10600 ± 1950 nM | 619 ± 23 nM | – | – | – |
| O=C(CCCCCCCN1CCN(C(c2ccccc2)c2ccccc2)CC1)NO [Compound 8b, 8-(4-(diphenylmethyl)-piperazin-1-yl)-N-hydroxyoctanamide] | 245 ± 2 nM | – | around 45% | 97.7 ± 0.2% | > 90% | 124 ± 13 nM | 3.3 | 1.7 | 2 | 39100 ± 2700 nM | 5420 ± 770 nM | 408 ± 22 nM | 0.45% | 4.13% | – |
| O=C(NO)c1ccc(CN2CCN(C(c3ccccc3)c3ccccc3)CC2)cc1 [Compound 9b, 4-(4-(diphenylmethyl)-piperazin-1-ylmethyl)-N-hydroxy-benzamide] | 708 ± 45 nM | – | around 45% | 96.9 ± 0.3% | > 90% | 31 ± 4 nM | 47.5 | 112 and 111.8 | 23 | 99500 ± 700 nM | 38100 nM | 1470 ± 172 nM | – | – | 38200 ± 3010 nM |

From publication PMC9785542, “Discovery of 1-Benzhydryl-Piperazine-Based HDAC Inhibitors with Anti-Breast Cancer Activity: Synthesis, Molecular Modeling, In Vitro and In Vivo Biological Evaluation” (Pharmaceutics, 2022)
